Molecules are shown by their SMILES.

Test [1] addresses T1, GST-ULK1 (Homo sapiens, UniProt O75385).
T1 sequence (O75385 1-1050): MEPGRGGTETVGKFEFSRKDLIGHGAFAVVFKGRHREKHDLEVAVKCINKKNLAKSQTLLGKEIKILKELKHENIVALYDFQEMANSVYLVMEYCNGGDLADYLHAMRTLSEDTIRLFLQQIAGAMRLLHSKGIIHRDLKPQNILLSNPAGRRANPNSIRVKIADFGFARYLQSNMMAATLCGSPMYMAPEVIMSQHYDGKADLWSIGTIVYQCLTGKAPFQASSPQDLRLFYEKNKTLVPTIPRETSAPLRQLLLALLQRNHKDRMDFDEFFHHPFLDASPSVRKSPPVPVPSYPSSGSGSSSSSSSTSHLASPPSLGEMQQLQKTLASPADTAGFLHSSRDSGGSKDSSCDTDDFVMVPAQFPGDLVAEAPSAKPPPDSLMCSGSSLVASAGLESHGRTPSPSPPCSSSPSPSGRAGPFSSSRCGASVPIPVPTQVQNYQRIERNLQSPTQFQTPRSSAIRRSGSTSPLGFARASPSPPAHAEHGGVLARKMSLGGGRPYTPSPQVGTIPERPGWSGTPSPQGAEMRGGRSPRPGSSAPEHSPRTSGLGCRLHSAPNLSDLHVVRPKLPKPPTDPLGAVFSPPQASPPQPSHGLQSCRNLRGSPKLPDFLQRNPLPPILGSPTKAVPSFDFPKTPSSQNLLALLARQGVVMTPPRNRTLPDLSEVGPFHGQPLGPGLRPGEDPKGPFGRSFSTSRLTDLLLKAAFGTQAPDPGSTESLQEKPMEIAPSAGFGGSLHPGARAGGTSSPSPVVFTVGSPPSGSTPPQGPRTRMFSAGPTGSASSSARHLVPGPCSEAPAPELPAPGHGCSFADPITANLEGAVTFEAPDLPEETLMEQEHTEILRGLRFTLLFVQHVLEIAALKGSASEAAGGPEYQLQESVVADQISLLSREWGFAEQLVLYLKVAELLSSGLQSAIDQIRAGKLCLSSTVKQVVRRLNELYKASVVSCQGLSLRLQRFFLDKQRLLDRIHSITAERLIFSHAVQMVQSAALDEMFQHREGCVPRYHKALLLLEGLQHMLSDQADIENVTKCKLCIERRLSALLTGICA
Put plainly: LanthaScreen ULK1 inhibitor assay. The test is classed as biochemical. The following applies: 5 nM GST-ULK1, 30 nM tracer, 20 μM ATP, 1 hr room temperature. On the technique in general: In TR-FRET formats the signal depends on donor and acceptor labels being close together.

Test [2] has as its target T2, ULK1 kinase (Homo sapiens, UniProt O75385).
T2 construct: purchased Reaction Biology
T2 sequence (O75385 1-1050): T1 sequence (O75385 1-1050)
Put plainly: Radiometric HotSpot kinase assay (Reaction Biology). The class given is biochemical. The following applies: activity-based ULK1 kinase assay.

Test [3] has as its target T3, ULK1 kinase domain (Homo sapiens, UniProt O75385).
T3 construct: The protein expression construct of ULK1 kinase domain (1-283) was cloned; 6His-Sumo (N, cleaved yes); made in house; host or cells: E. coli BL21 star, co-expressed with lambda phosphatase
T3 sequence (O75385 1-283): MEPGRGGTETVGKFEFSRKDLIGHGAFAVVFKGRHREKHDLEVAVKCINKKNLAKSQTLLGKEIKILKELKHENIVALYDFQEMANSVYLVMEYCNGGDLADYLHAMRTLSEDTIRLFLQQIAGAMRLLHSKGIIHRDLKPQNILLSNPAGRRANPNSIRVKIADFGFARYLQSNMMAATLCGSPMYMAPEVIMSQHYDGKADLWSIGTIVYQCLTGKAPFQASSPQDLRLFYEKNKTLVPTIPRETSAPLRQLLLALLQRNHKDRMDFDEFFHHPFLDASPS
Description: Differential scanning fluorimetry (thermal shift). The test is classed as binding. Particulars: 2 μM ULK1 kinase domain, 50 μM compound, vs DMSO reference.

As a reminder, the IC50 is the point on the concentration scale where inhibition reaches its midpoint. Low values mean greater potency, high ones weaker potency. One may read the ΔTm as the change in melting temperature against a reference sample. With `CN1CC=C(c2cc3c(NCCCN4CCCC4)c(C(F)(F)F)cnc3[nH]2)CC1` [Compound 97, 2-(1-methyl-1,2,3,6-tetrahydropyridin-4-yl)-N-(3-(pyrrolidin-1-yl)propyl)-5-(trifluoro-methyl)-1H-pyrrolo[2,3-b]pyridin-4-amine], the IC50 was found to be 541 nM in test [1] and 2380 nM in test [2]. The shift in melting temperature (ΔTm) at 50 µM in test [3] stood at 7.07 °C.

As to `FC1(F)CCN(c2c(C(F)(F)F)cnc3[nH]c(C4=CCOCC4)cc23)CC1` [Compound 93, 4-(4,4-Difluoropiperidin-1-yl)-2-(3,6-dihydro-2H-pyran-4-yl)-5-(trifluoromethyl)-1H-pyrrolo[2,3-b]pyridine], the IC50 amounted to 8280 nM in test [1] and 7070 nM in test [2]. For the same compound, in test [3], the shift in melting temperature (ΔTm) at 50 µM came to 2.03 °C.

As for `O=C(NC[C@H](O)CO)c1cccc(-c2cnc3[nH]c(-c4ccc(F)cc4)cc3c2)c1` [Compound 51, (S)—N-(2,3-Dihydroxypropyl)-3-(2-(4-fluorophenyl)-1H-pyrrolo[2,3-b]pyridin-5-yl)-benzamide], the half-inhibitory concentration (IC50) in test [1] came to 387 nM; in test [2], 184 nM. In test [3], the ΔTm at 50 µM came out at 4.76 °C.

On to `CS(=O)(=O)N1CCN(C(=O)c2cc(-c3cnc4[nH]c(-c5ccc(F)cc5)cc4c3)cs2)CC1` [Compound 29, (4-(2-(4-Fluorophenyl)-1H-pyrrolo[2,3-b]pyridin-5-yl)thiophen-2-yl)(4-(methyl-sulfonyl)piperazin-1-yl)methanone], for which the figures for the IC50 in test [1] and in test [2] were 1230 nM and 938 nM, respectively. Moreover, in test [3], the thermal shift (ΔTm) at 50 µM is 0.9 °C.

Consider `O=C(NC(CO)CO)c1cccc(-c2cnc3[nH]c(-c4ccc(F)cc4)cc3c2)n1` [Compound 55, N-(1,3-Dihydroxypropan-2-yl)-6-(2-(4-fluorophenyl)-1H-pyrrolo[2,3-b]pyridin-5-yl)picolinamide], for which the results for the 50% inhibitory concentration (IC50) in test [1] and in test [2] were 74 nM and 44 nM, respectively. Moreover, the ΔTm at 50 µM in test [3] worked out at 8.56 °C.

For the compound `CC[C@H](CO)NC(=O)c1nc(-c2cnc3[nH]c(-c4ccc(F)cc4)cc3c2)cs1` [Compound 62, (R)-4-(2-(4-Fluorophenyl)-1H-pyrrolo[2,3-b]pyridin-5-yl)-N-(1-hydroxybutan-2-yl)-thiazole-2-carboxamide], the half-maximal inhibitory concentration (IC50) in test [1] worked out at 182 nM; in test [2] it was 78 nM. Moreover, the ΔTm at 50 µM in test [3] was determined as 4.81 °C.

Consider `O=C(NCC1(O)CCCC1)c1nc(-c2cnc3[nH]c(-c4ccc(F)cc4)cc3c2)cs1` [Compound 72, 4-(2-(4-fluorophenyl)-1H-pyrrolo-[2,3-b]pyridin-5-yl)-N-((1-hydroxy-cyclopentyl)methyl)thiazole-2-carboxamide], for which the values for the IC50 in test [1] and in test [2] were 36 nM and 50 nM, respectively. In test [3], the shift in melting temperature (ΔTm) at 50 µM is 7.96 °C.

Turning to `Fc1ccc(-c2cc3c(NC4CCC4)c(C(F)(F)F)cnc3[nH]2)cc1` [Compound 82, N-cyclobutyl-2-(4-fluorophenyl)-5-(trifluoro-methyl)-1H-pyrrolo[2,3-b]pyridin-4-amine], the IC50 is 24 nM in test [1] and 9 nM in test [2]. Further, in test [3], the ΔTm at 50 µM came to 4.39 °C.

On to `O=C(NC1CNC1)c1nc(-c2cnc3[nH]c(-c4ccc(F)cc4)cc3c2)cs1` [Compound 80, N-(azetidin-3-yl)-4-(2-(4-fluoro-phenyl)-1H-pyrrolo[2,3-b]pyridin-5-yl)thiazole-2-carboxamide], for which the figures for the IC50 in test [1] and in test [2] were 966 nM and 502 nM, respectively. Besides, the ΔTm at 50 µM in test [3] was determined as 4.99 °C.

As for `C[C@H](CO)NC(=O)c1nc(-c2cnc3[nH]c(-c4ccc(F)cc4)cc3c2)cs1` [Compound 77, (R)-4-(2-(4-fluorophenyl)-1H-pyrrolo[2,3-b]pyridin-5-yl)-N-(1-hydroxypropan-2-yl)thiazole-2-carboxamide], the results for the IC50 in test [1] and in test [2] were 741 nM and 348 nM, respectively. The shift in melting temperature (ΔTm) at 50 µM in test [3] was found to be 4.54 °C.

In the case of `CC[C@H](CO)NC(=O)c1cccc(-c2cnc3[nH]c(-c4ccc(F)cc4)cc3c2)n1` [Compound 56, (R)-6-(2-(4-Fluorophenyl)-1H-pyrrolo[2,3-b]pyridin-5-yl)-N-(1-hydroxybutan-2-yl)-picolinamide], the concentration for half-maximal inhibition (IC50) in test [1] came out at 80 nM; in test [2] it was 72 nM. In addition, the ΔTm at 50 µM in test [3] amounted to 6.85 °C.

Turning to `O=C(NCC(O)C(F)(F)F)c1cccc(-c2cnc3[nH]c(-c4ccc(F)cc4)cc3c2)c1` (stereo not drawn) [Compound 50, 3-(2-(4-Fluorophenyl)-1H-pyrrolo[2,3-b]pyridin-5-yl)-N-(3,3,3-trifluoro-2-hydroxy-propyl)benzamide], the values for the IC50 in test [1] and in test [2] were 86 nM and 91 nM, respectively. The thermal shift (ΔTm) at 50 µM in test [3] was found to be 4.4 °C.

On to `O=C(NC(CO)CO)c1nc(-c2cnc3[nH]c(-c4ccc(F)cc4)cc3c2)cs1` [Compound 63, N-(1,3-Dihydroxypropan-2-yl)-4-(2-(4-fluorophenyl)-1H-pyrrolo[2,3-b]pyridin-5-yl)-thiazole-2-carboxamide], for which the IC50 in test [1] worked out at 103 nM; in test [2], 55 nM. Besides, the ΔTm at 50 µM in test [3] was 6.46 °C.

On to `FC(F)(F)c1cnc2[nH]c(C3CCOCC3)cc2c1NCCCN1CCCC1` [Compound 90, N-(3-(pyrrolidin-1-yl)propyl)-2-(tetrahydro-2H-pyran-4-yl)-5-(trifluoromethyl)-1H-pyrrolo[2,3-b]pyridin-4-amine], for which the values for the half-inhibitory concentration (IC50) in test [1] and in test [2] were 145 nM and 155 nM, respectively. The ΔTm at 50 µM in test [3] was found to be 9.23 °C.

As for `CC[C@H](CO)NC(=O)c1cccc(-c2cnc3[nH]c(-c4ccc(F)cc4)cc3c2)c1` [Compound 53, (R)-3-(2-(4-Fluorophenyl)-1H-pyrrolo[2,3-b]pyridin-5-yl)-N-(1-hydroxybutan-2-yl)benzamide], the IC50 in test [1] is 94 nM; in test [2], 66 nM. Besides, the ΔTm at 50 µM in test [3] is 3.11 °C.

As to `Fc1ccc(-c2cc3c(NCC(F)(F)F)c(C(F)(F)F)cnc3[nH]2)cc1` [Compound 81, 2-(4-fluorophenyl)-N-(2,2,2-trifluoroethyl)-5-(trifluoromethyl)-1H-pyrrolo[2,3-b]pyridin-4-amine], the 50% inhibitory concentration (IC50) in test [1] turned out to be 14 nM; in test [2], 15 nM. The thermal shift (ΔTm) at 50 µM in test [3] came out at 5.41 °C.

Regarding `FC(F)(F)c1cnc2[nH]c(C3CCOCC3)cc2c1NCCN1CCOCC1` [Compound 88, N-(2-morpholinoethyl)-2-(tetrahydro-2H-pyran-4-yl)-5-(trifluoromethyl)-1H-pyrrolo-[2,3-b]pyridin-4-amine], the IC50 in test [1] was determined as 4520 nM; in test [2], 4450 nM. Moreover, the thermal shift (ΔTm) at 50 µM in test [3] worked out at 2.37 °C.

Take `CC[C@@H](CO)NC(=O)c1cccc(-c2cnc3[nH]c(-c4ccc(F)cc4)cc3c2)c1` [Compound 54, (S)-3-(2-(4-Fluorophenyl)-1H-pyrrolo[2,3-b]pyridin-5-yl)-N-(1-hydroxybutan-2-yl)benzamide]: the IC50 in test [1] turned out to be 5850 nM; in test [2], 1470 nM. For the same compound, the ΔTm at 50 µM in test [3] was 1.62 °C.

On to `CN1CC=C(c2cc3c(NCCN4CCOCC4)c(C(F)(F)F)cnc3[nH]2)CC1` [Compound 99, 2-(1-methyl-1,2,3,6-tetrahydropyridin-4-yl)-N-(2-morpholinoethyl)-5-(trifluoromethyl)-1H-pyrrolo[2,3-b]pyridin-4-amine], for which the IC50 in test [1] was 374 nM; in test [2], 625 nM. Moreover, the shift in melting temperature (ΔTm) at 50 µM in test [3] worked out at 7.77 °C.

The values above are taken from patent US20250042895A1, “INHIBITORS OF ULK1 AND METHODS OF USE” (H. LEE MOFFITT CANCER CENTER AND RESEARCH INSTITUTE, INC., priority 2021, published 2025).
